This note sets out measurements from PubChem BioAssay (NCI).

Some test systems named below: DU-145 prostate; U251 CNS; A549 NSCLC; SNB-19 CNS; NCI-H522 lung; M14 melanoma; IGROV1 ovarian; MDA-MB-435; UACC-257 melanoma; SW-620 colon.
Common to all, as to assay: DTP human tumour cell line panel, 48 h

Several values for one entry are separate records, joined by “and”; a condition that tells them apart may be missing. Equal entries are not always repeated.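 Five concentrations, 48 hours, 96-well plates. The concentration for 50% growth inhibition is given as GI50. At the TGI there is no net growth.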

Take `CC(C)c1[nH]nc2c(NCc3ccc(-c4ccccn4)cc3)nc(SCCN)nc12`: the GI50 (usually the concentration that inhibits growth by half) in the test with DU-145 prostate is 0.0389 µM and 0.0416 µM; in the test on U251 CNS, 0.028 µM and 0.0205 µM; with A549 NSCLC, 0.0306 µM and 0.0159 µM; with SNB-19 CNS, 0.0173 µM and 0.0142 µM; in the test on NCI-H522 lung, 0.00326 µM; in the test on M14 melanoma, 0.0155 µM and 0.0181 µM. For the same compound, the concentration for 50% growth inhibition (GI50) with IGROV1 ovarian was 0.0215 µM and 0.0231 µM; with MDA-MB-435 it was 0.00422 µM; with UACC-257 melanoma it was 0.0414 µM and 0.0235 µM; with SW-620 colon, 0.012 µM. The total growth inhibition concentration (TGI) (usually the concentration at which net growth stops) is 11.8 µM with DU-145 prostate; 11.5 µM in the test on U251 CNS; 12.2 µM with A549 NSCLC; 11.8 µM with SNB-19 CNS; 0.147 µM in the test on NCI-H522 lung; 0.151 µM and 1.16 µM in the test on M14 melanoma. Moreover, the TGI was 12.4 µM in the test with IGROV1 ovarian; 1.08 µM and 1.07 µM with MDA-MB-435; 0.0875 µM in the test on UACC-257 melanoma.
`CC(C)c1[nH]nc2c(NCc3ccc(-c4ccccn4)cc3)nc(SCCN(C)C)nc12`: the GI50 with DU-145 prostate was 0.138 µM; in the test with U251 CNS it was 0.0474 µM; in the test with SNB-19 CNS, 0.0244 µM; in the test on NCI-H522 lung, less than 0.015 µM; in the test on M14 melanoma it was less than 0.0133 µM; with IGROV1 ovarian it was 0.0579 µM. The GI50 is less than 0.0176 µM in the test with MDA-MB-435, 0.017 µM in the test on UACC-257 melanoma and less than 0.0135 µM in the test with SW-620 colon. Also, the TGI in the test on DU-145 prostate is 12.4 µM; in the test on U251 CNS it was 10.7 µM; in the test on A549 NSCLC it was 13 µM; in the test on SNB-19 CNS it was 12.6 µM; in the test with NCI-H522 lung it was less than 0.0232 µM; in the test on M14 melanoma, 0.122 µM. Besides, the concentration for total growth inhibition (TGI) with IGROV1 ovarian stood at 13.7 µM; in the test with MDA-MB-435, 0.797 µM; in the test on UACC-257 melanoma, 0.0826 µM; with SW-620 colon it was 12.1 µM.
Consider `Cc1cc(-c2nc3n(c2/C=N/N=C(N)N)CCS3)c(C)s1`, for which the GI50 with DU-145 prostate is 18.2 µM; in the test with U251 CNS, 15.6 µM; in the test with A549 NSCLC, 15.7 µM; with SNB-19 CNS, 17.2 µM; in the test with M14 melanoma, 18.9 µM; in the test with MDA-MB-435, 18.5 µM. In the test with SW-620 colon, the GI50 is 18.5 µM. The total growth inhibition concentration (TGI) is 34.7 µM in the test on DU-145 prostate; 32.1 µM in the test with U251 CNS; 44.3 µM in the test on A549 NSCLC; 35.3 µM with SNB-19 CNS; 32.9 µM with M14 melanoma; 32.5 µM in the test on MDA-MB-435. Moreover, in the test on SW-620 colon, the total growth inhibition concentration (TGI) is 35 µM.
On to `COc1ccc(/C=C2\COc3ccc(O)c(O)c3C2=O)cc1OC`, for which the GI50 is 2.22 µM in the test with DU-145 prostate; 0.991 µM with U251 CNS; 2.6 µM with A549 NSCLC; 2.06 µM in the test with SNB-19 CNS; 0.199 µM in the test with NCI-H522 lung; 1.43 µM in the test with M14 melanoma. Besides, the GI50 in the test on IGROV1 ovarian was 0.84 µM; with MDA-MB-435 it was 1.32 µM; in the test on UACC-257 melanoma, 1.75 µM. In addition, the TGI with DU-145 prostate is 11.4 µM; with U251 CNS, 7.2 µM; in the test with A549 NSCLC it was greater than 100 µM; in the test with SNB-19 CNS, 7.43 µM; with NCI-H522 lung, 0.473 µM; with M14 melanoma, 3.31 µM. In addition, the total growth inhibition concentration (TGI) in the test with IGROV1 ovarian is 3.53 µM; with MDA-MB-435, 3.78 µM; in the test with UACC-257 melanoma, 4.93 µM.
For `Cc1c(Cl)cccc1NC(=O)c1sc2nc3c(cc2c1N)C(=O)CCC3`, the GI50 in the test on DU-145 prostate is 0.124 µM; in the test on U251 CNS it was 0.0836 µM; in the test with A549 NSCLC, 0.0619 µM; in the test with SNB-19 CNS, 0.0698 µM; in the test on NCI-H522 lung, 0.0204 µM; in the test on M14 melanoma it was 0.0655 µM. The values for the GI50 in the test with IGROV1 ovarian, in the test with MDA-MB-435 and in the test on SW-620 colon were 0.153 µM, 0.0203 µM and 0.0484 µM, respectively. Besides, the TGI in the test with DU-145 prostate is 47.3 µM; in the test with U251 CNS, greater than 37.4 µM; in the test on A549 NSCLC it was greater than 100 µM; in the test on SNB-19 CNS it was greater than 100 µM; with NCI-H522 lung, 0.395 µM; in the test with IGROV1 ovarian, greater than 100 µM. Also, the concentration for total growth inhibition (TGI) in the test on MDA-MB-435 is 0.0488 µM; in the test on SW-620 colon, greater than 100 µM.
Consider `O=C(NCCCl)Nc1ccccc1`, for which the concentration for total growth inhibition (TGI) with DU-145 prostate, in the test on U251 CNS, in the test on A549 NSCLC, in the test with SNB-19 CNS, with NCI-H522 lung and in the test with IGROV1 ovarian was greater than 100 µM each time. Further, the concentration for total growth inhibition (TGI) in the test with MDA-MB-435, in the test on UACC-257 melanoma and in the test with SW-620 colon was greater than 100 µM throughout.
As to `O=C1CC(Cc2n[nH]c3c2CCCC3)CC(=O)N1`, the TGI with DU-145 prostate, in the test with U251 CNS, with A549 NSCLC, with M14 melanoma, in the test with IGROV1 ovarian and in the test with MDA-MB-435 was greater than 100 µM each time. In addition, the TGI in the test on UACC-257 melanoma and in the test with SW-620 colon was greater than 100 µM in each case.
`O=C(NCc1ccco1)C1CCN(S(=O)(=O)c2ccc(Cl)cc2)CC1`: the GI50 was greater than 100 µM in the test with DU-145 prostate; greater than 100 µM in the test with U251 CNS; 78.3 µM in the test on A549 NSCLC; greater than 100 µM in the test on SNB-19 CNS; 90.5 µM with NCI-H522 lung; greater than 100 µM in the test on IGROV1 ovarian. In addition, the GI50 was 35.4 µM in the test with MDA-MB-435, greater than 100 µM in the test on UACC-257 melanoma and greater than 100 µM in the test with SW-620 colon. The TGI in the test with DU-145 prostate, in the test on U251 CNS, with A549 NSCLC, in the test on SNB-19 CNS, in the test on NCI-H522 lung and in the test with IGROV1 ovarian was greater than 100 µM each time. Besides, the TGI in the test with MDA-MB-435, with UACC-257 melanoma and with SW-620 colon was greater than 100 µM throughout.
Regarding `Cc1ccnc2c(NC(C)CCCN)cc(O)c(O)c12` (stereo not given), the GI50 in the test on DU-145 prostate is 11.2 µM; with U251 CNS, 9.43 µM; in the test with A549 NSCLC, 20.7 µM; in the test with NCI-H522 lung, 2.14 µM; in the test on M14 melanoma it was 29.7 µM; in the test with IGROV1 ovarian it was 12.5 µM. Besides, the GI50 in the test with MDA-MB-435 was 22.3 µM; with UACC-257 melanoma, 22.3 µM; in the test with SW-620 colon it was 19.6 µM. For the same compound, the TGI is 24.2 µM in the test with DU-145 prostate; 22.8 µM in the test with U251 CNS; 75 µM with A549 NSCLC; 9.44 µM in the test with NCI-H522 lung; greater than 100 µM in the test on M14 melanoma; 32.9 µM in the test on IGROV1 ovarian. Besides, the concentration for total growth inhibition (TGI) in the test with MDA-MB-435 is 50.6 µM; with UACC-257 melanoma, 55.5 µM; in the test on SW-620 colon, 78.7 µM.
